Assay results as given in the Kinase Knowledgebase extract (Sharma et al. 2016).

Molecular target: CDK2 (human) (UniProt P24941)
Experiment: Enzyme Assay

| SMILES | IC50 [µM] |
| --- | --- |
| CN1CCN(C(=O)c2ccc3cc(-c4csc(CS(=O)(=O)c5ccccc5)n4)c(=O)[nH]c3c2)CC1 | < 1 |
| Nc1c(-c2csc(-c3ccncc3)n2)c(=O)[nH]c2ccc(N3CCCCC3)cc12 | < 1 |
| CN(c1nc(-c2cc3ccccc3[nH]c2=O)cs1)S(=O)(=O)c1ccccc1 | < 1 |
| O=c1[nH]c2cc(CN3CCCCC3)ccc2cc1-c1csc(-c2ccncc2)n1 | < 1 |
| O=c1[nH]c2cc(C(F)(F)F)ccc2cc1-c1csc(-c2ccncc2)n1 | < 1 |
| CC(C)N(C)Cc1ccc2cc(-c3csc(CS(=O)(=O)c4ccccc4)n3)c(=O)[nH]c2c1 | < 1 |
| COc1ccc2cc(-c3csc(-c4ccnc(Cl)c4)n3)c(=O)[nH]c2c1 | < 1 |
| CCc1cc(-c2nc(-c3cc4ccccc4[nH]c3=O)cs2)ccn1 | < 1 |
| CCN(CC)CCN(C)c1ncc2cc(-c3csc(-c4ccncc4)n3)c(=O)[nH]c2n1 | < 1 |
| Cc1onc(-c2ccccc2)c1-c1csc(-c2cc3ccccc3[nH]c2=O)n1 | < 1 |
| O=c1[nH]c2cc3c(cc2cc1-c1csc(-c2ccncc2)n1)OCO3 | < 1 |
| COc1ccc2cc(-c3csc(C(C)(C)S(=O)(=O)c4ccccc4)n3)c(=O)[nH]c2c1 | < 1 |
| CSc1ncc2cc(-c3csc(-c4ccncc4)n3)c(=O)[nH]c2n1 | < 1 |
| O=c1[nH]c2cc(CO)ccc2cc1-c1csc(CS(=O)(=O)c2ccccc2)n1 | < 1 |
| O=c1[nH]c2cc(CN3CCCCC3)ccc2cc1-c1csc(CS(=O)(=O)c2ccccc2)n1 | < 1 |
| O=c1[nH]c2cc(CN3CCCC3)ccc2cc1-c1csc(-c2ccncc2)n1 | < 1 |
| COC(=O)c1ccc2cc(-c3csc(N(C)S(=O)(=O)c4ccccc4)n3)c(=O)[nH]c2c1 | < 1 |
| O=c1[nH]c2cc(CN3CC=CCC3)ccc2cc1-c1csc(CS(=O)(=O)c2ccccc2)n1 | < 1 |
| CN1CCN(c2ccc3[nH]c(=O)c(-c4csc(-c5ccncc5)n4)c(N)c3c2)CC1 | < 1 |
| COC(=O)c1cccc2[nH]c(=O)c(-c3csc(-c4ccncc4)n3)cc12 | < 1 |
| C[C@@H]1CN(Cc2ccc3cc(-c4csc(CS(=O)(=O)c5ccccc5)n4)c(=O)[nH]c3c2)C[C@H](C)N1 | < 1 |

| SMILES | IC50 [µM] |
| --- | --- |
| O=c1[nH]c2cc(CN3CCC(O)CC3)ccc2cc1-c1csc(-c2ccncc2)n1 | < 1 |
| O=c1[nH]c2ccccc2cc1-c1nc(-c2cccc([N+](=O)[O-])c2)cs1 | < 1 |
| O=c1[nH]c2cc(C(F)(F)F)ccc2cc1-c1csc(-c2ccc3c(c2)OCO3)n1 | < 1 |
| O=c1[nH]c2ccccc2cc1-c1csc(CS(=O)(=O)c2cccs2)n1 | < 1 |
| CC1CC(C)CN(Cc2ccc3cc(-c4csc(-c5ccncc5)n4)c(=O)[nH]c3c2)C1 (stereo not given) | < 1 |
| O=c1[nH]c2ccccc2cc1-c1csc(-c2ccnc(OCCN3CCCCC3)c2)n1 | < 1 |
| O=c1[nH]c2cc(CN3CCC(O)C3)ccc2cc1-c1csc(-c2ccncc2)n1 (stereo not given) | < 1 |
| O=c1[nH]c2cc(CNC3CCCC3)ccc2cc1-c1csc(-c2ccncc2)n1 | < 1 |
| O=c1[nH]c2ccccc2c(O)c1-c1csc(-c2ccncc2)n1 | < 1 |
| COc1ccc2cc(-c3csc(CS(=O)(=O)c4ccccc4)n3)c(=O)[nH]c2c1 | < 1 |
| O=c1[nH]c2ccccc2cc1-c1csc(-c2ccc(O)cc2)n1 | < 1 |
| CCN(CC)Cc1ccc2cc(-c3csc(CS(=O)(=O)c4ccccc4)n3)c(=O)[nH]c2c1 | < 1 |
| O=c1ccc(-c2nc(-c3cc4ccccc4[nH]c3=O)cs2)c[nH]1 | < 1 |
| C=CCN(c1nc(-c2cc3ccccc3[nH]c2=O)cs1)S(=O)(=O)c1ccccc1 | < 1 |
| CN1CCN(C(=O)c2ccc3cc(-c4csc(N(C)S(=O)(=O)c5ccccc5)n4)c(=O)[nH]c3c2)CC1 | < 1 |
| CCN(CC)C(=O)c1cccc2[nH]c(=O)c(-c3csc(-c4ccncc4)n3)cc12 | < 1 |
| O=c1[nH]c2ccccc2cc1-c1csc(-c2ccncc2)n1 | < 1 |
| CN(c1nc(-c2cc3ccccc3[nH]c2=O)cs1)S(=O)(=O)c1cccc(F)c1 | < 1 |
| CC1CCCN(Cc2ccc3cc(-c4csc(CS(=O)(=O)c5ccccc5)n4)c(=O)[nH]c3c2)C1 (stereo not given) | < 1 |
| O=c1[nH]c2cc(CN3CCCC(O)C3)ccc2cc1-c1csc(-c2ccncc2)n1 (stereo not given) | < 1 |
| O=c1[nH]c2ccccc2cc1-c1csc(CS(=O)(=O)c2ccccc2)n1 | < 1 |

| SMILES | IC50 [µM] |
| --- | --- |
| CSc1nc2[nH]c(=O)c(-c3csc(-c4ccncc4)n3)cc2s1 | < 1 |
| CCN(CC)Cc1ccc2cc(-c3csc(-c4ccncc4)n3)c(=O)[nH]c2c1 | < 1 |
| CCN(CCN(C)C)C(=O)c1ccc2cc(-c3csc(-c4ccncc4)n3)c(=O)[nH]c2c1 | < 1 |
| Nc1nc(-c2ccncc2)ncc1-c1nc(-c2cc3ccccc3[nH]c2=O)cs1 | < 1 |
| Nc1ccc(-c2nc(-c3cc4ccccc4[nH]c3=O)cs2)cc1 | < 1 |
| O=C(c1ccc2cc(-c3csc(CS(=O)(=O)c4ccccc4)n3)c(=O)[nH]c2c1)N1CCOCC1 | < 1 |
| CCN(CC)CCOc1cc(-c2nc(-c3cc4ccccc4[nH]c3=O)cs2)ccn1 | < 1 |
| O=c1[nH]c2ccccc2cc1-c1csc(C[S+]([O-])c2ccccc2)n1 (stereo not given) | < 1 |
| CC1CN(Cc2ccc3cc(-c4csc(CS(=O)(=O)c5ccccc5)n4)c(=O)[nH]c3c2)CCN1 (stereo not given) | < 1 |
| CCN(CC)CCN(C)Cc1ccc2cc(-c3csc(-c4ccncc4)n3)c(=O)[nH]c2c1 | < 1 |
| COc1ccc(-c2nc(-c3cc4ccccc4[nH]c3=O)cs2)cn1 | < 1 |
| CN1CCN(C(=O)c2ccc3cc(-c4csc(-c5ccncc5)n4)c(=O)[nH]c3c2)CC1 | < 1 |
| O=c1[nH]c2ccccc2cc1-c1nc(-c2ccncc2)cs1 | < 1 |
| CN1CCN(Cc2ccc3cc(-c4csc(CS(=O)(=O)c5ccccc5)n4)c(=O)[nH]c3c2)CC1 | < 1 |
| CC(C)C(CO)NCc1ccc2cc(-c3csc(-c4ccncc4)n3)c(=O)[nH]c2c1 (stereo not given) | < 1 |
| CC(C)NCc1ccc2cc(-c3csc(-c4ccncc4)n3)c(=O)[nH]c2c1 | < 1 |
| Nc1c(-c2csc(-c3ccncc3)n2)c(=O)[nH]c2ccc(Cl)cc12 | < 1 |
| O=c1[nH]c2cc(O)ccc2cc1-c1csc(CS(=O)(=O)c2ccccc2)n1 | < 1 |
| CC1CN(Cc2ccc3cc(-c4csc(-c5ccncc5)n4)c(=O)[nH]c3c2)CCN1 (stereo not given) | < 1 |
| CN(c1nc(-c2cc3ccccc3[nH]c2=O)cs1)S(=O)(=O)c1ccc(Br)cc1 | < 1 |
| O=c1[nH]c2ccccc2cc1-c1csc(CS(=O)(=O)c2ccccn2)n1 | < 1 |

Further lines, results first:

| IC50 [µM] | SMILES |
| --- | --- |
| < 1 | O=c1[nH]c2ccccc2cc1-c1csc(-c2cccnc2)n1 |
| < 1 | CC1CC(C)CN(Cc2ccc3cc(-c4csc(CS(=O)(=O)c5ccccc5)n4)c(=O)[nH]c3c2)C1 (stereo not given) |
| < 1 | CC(C)NC[C@H]1CCCN1Cc1ccc2cc(-c3csc(CS(=O)(=O)c4ccccc4)n3)c(=O)[nH]c2c1 |
| < 1 | CCNCCNc1ncc2cc(-c3csc(-c4ccncc4)n3)c(=O)[nH]c2n1 |
| < 1 | O=c1[nH]c2ccccc2cc1-c1csc(-c2ccc(-c3csnn3)cc2)n1 |
| < 1 | O=c1[nH]c2cc(C(F)(F)F)ccc2cc1-c1csc(CS(=O)(=O)c2ccccc2)n1 |
| < 1 | CC(C)(c1nc(-c2cc3ccccc3[nH]c2=O)cs1)S(=O)(=O)c1ccccc1 |
| < 1 | CC1CCCN(Cc2ccc3cc(-c4csc(-c5ccncc5)n4)c(=O)[nH]c3c2)C1 (stereo not given) |
| < 1 | O=C(c1ccc2cc(-c3csc(CS(=O)(=O)c4ccccc4)n3)c(=O)[nH]c2c1)N1CCCCC1 |
| < 1 | CN1CCN(Cc2ccc3cc(-c4csc(-c5ccncc5)n4)c(=O)[nH]c3c2)CC1 |
| < 1 | CCc1cc(-c2nc(-c3cc4cc(Cl)ccc4[nH]c3=O)cs2)ccn1 |
| < 1 | CC(C)N(C)Cc1ccc2cc(-c3csc(-c4ccncc4)n3)c(=O)[nH]c2c1 |
| < 1 | O=c1[nH]c2ccccc2cc1-c1csc(-c2ccnc(N3CCCCC3)c2)n1 |
| < 1 | O=c1[nH]c2ccccc2cc1-c1csc(-c2ccnc(NCCCO)c2)n1 |
| < 1 | CC1CN(Cc2ccc3cc(-c4csc(CS(=O)(=O)c5ccccc5)n4)c(=O)[nH]c3c2)CC(C)O1 (stereo not given) |
| < 1 | CC(C)CNCc1ccc2cc(-c3csc(-c4ccncc4)n3)c(=O)[nH]c2c1 |

| IC50 [µM] | SMILES |
| --- | --- |
| < 1 | O=c1[nH]c2cc(C(F)(F)F)ccc2cc1-c1csc(CS(=O)(=O)c2cccs2)n1 |
| < 1 | O=c1[nH]c2cc(CN3CCC3)ccc2cc1-c1csc(-c2ccncc2)n1 |
| < 1 | O=c1[nH]c2cc(OCCN3CCOCC3)ccc2cc1-c1csc(-c2ccncc2)n1 |
| < 1 | CCN(CCN(C)C)Cc1ccc2cc(-c3csc(-c4ccncc4)n3)c(=O)[nH]c2c1 |
| < 1 | CC1CN(Cc2ccc3cc(-c4csc(-c5ccncc5)n4)c(=O)[nH]c3c2)CC(C)O1 (stereo not given) |
| < 1 | Nc1c(-c2csc(-c3ccncc3)n2)c(=O)[nH]c2ccccc12 |
| < 1 | O=C(c1ccc2cc(-c3csc(-c4ccncc4)n3)c(=O)[nH]c2c1)N1CCCCC1 |
| < 1 | O=c1[nH]c2ccc(F)cc2cc1-c1csc(-c2ccncc2)n1 |
| < 1 | CN(C)CCOc1ccc2cc(-c3csc(-c4ccncc4)n3)c(=O)[nH]c2c1 |
| < 1 | O=c1[nH]c2ccccc2cc1-c1csc(-c2cccc(Cl)c2Cl)n1 |
| < 1 | COc1cc2[nH]c(=O)c(-c3csc(-c4ccncc4)n3)c(N)c2cc1OC |
| < 1 | CN(c1nc(-c2cc3ccc(C(=O)O)cc3[nH]c2=O)cs1)S(=O)(=O)c1ccccc1 |
| < 1 | O=c1[nH]c2cc(CO)ccc2cc1-c1csc(-c2ccncc2)n1 |
| < 1 | O=c1[nH]c2cc(CN3CCOCC3)ccc2cc1-c1csc(-c2ccncc2)n1 |
| < 1 | CC(C)[C@H]1CN(Cc2ccc3cc(-c4csc(CS(=O)(=O)c5ccccc5)n4)c(=O)[nH]c3c2)CCN1 |
| < 1 | CCN(CC)C(=O)c1ccc2cc(-c3csc(N(C)S(=O)(=O)c4ccccc4)n3)c(=O)[nH]c2c1 |
